Experimental data taken from patent US20120020946A1, “Methods for Inactivating Viruses” (priority 2009, published 2012).

Assays:
[1] = tested on: RD cell line (human rhabdomyosarcoma)
[2] = tested on: Poliovirus Sabin (Type 2H.010704); format: cell-based

OCl [Hypochlorite, Sodium hypochlorite]
cytotoxicity score, no virus added [1]: N | infectivity score, virus added [2]: N
